The values that follow come from patent US9682931B2, “Aryloyl(oxy or amino)pentafluorosulfanylbenzene compound, pharmaceutically acceptable salt thereof, and prodrugs thereof” (UBE INDUSTRIES, LTD., priority 2013, dated 2017).

SMILES strings stand for the structures. Converted amounts (≈) assume the structure as drawn. Like-named read-outs stand apart in the source and are kept apart here. Marks after values point to notes of the source that are not given here.

In assay [1] the test system is Salmonella typhimurium TA98 strain and TA100 strain. As to the kind of experiment: Growth inhibitory action and bactericidal action on salmonella (preincubation method, with and without S9 mix). As to conditions: for Bactericidal action: lowest concentration at which all bacterial cells were killed. The format is cell-based. The protocol: Growth inhibitory action and bactericidal action on salmonella
1) Preparation of Test-Substance Solution
Test substances (compounds listed in Table 1) each were prepared by dissolving it in DMSO when used. Preparation was made in such a manner that the highest dose became 5000 μg/plate and the dose lower than this was prepared by a dilution method. In the table, reference numerals of individual compounds correspond to the numbers of the individual compounds synthesized in the above Examples (the same applies to the following Tables).
Salmonella typhimurium TA98 strain and TA100 strain were used.
These were supplied by Japan Bioassay Research Center, proliferated and examined for genetic properties and other properties in accordance with customary methods, in advance. After these strains were confirmed to have these properties, they are cryopreserved (−80° C.) with a DMSO-added medium; and thawed for use in each test.
3) A cryopreserved strain was thawed and inoculated in a 2.5% aqueous nutrient broth (OXOID No. 2) solution and cultured while shaking at 37° C. for 7 hours to obtain a cell suspension, which was subjected to tests.
A minimum glucose agar plate medium (Vital Media AMT-S, manufactured by Kyokuto Pharmaceutical Industrial Co., Ltd.) was used.
The top agar was prepared when used by blending an aqueous solution of 0.5 mM L-histidine and 0.5 mM D-(+)-biotin with an aqueous solution prepared by adding Bacto Agar (Difco) (0.6%) and sodium chloride (0.5%).
S9 was purchased from Kikkoman; whereas a cofactor was previously prepared in accordance with a method known in the art. They were mixed in a customary method to prepare S9 mix.
Using a test system containing S9 mix and a test system containing no S9 mix, a test was carried out in accordance with a preincubation method. As the dose selection, the highest dose was specified as […], which was then serially diluted in a common ratio of 2 to prepare a total of 15 doses to be used in the test.
To a sterile test tube, a test solution (0.1 mL) and 0.1 M Na-phosphate buffer or S9 mix (0.5 mL) and a cell suspension (0.1 mL) were sequentially dispensed. Pre-incubation was carried out at 37° C. for 20 minutes while shaking. After completion of the pre-incubation, top agar (2 mL) kept warm at 45° C. was added, mixed and placed on a minimum glucose agar plate medium. After solidification, the plate was turned upside down and cultured at 37° C. for 48 hours.
After completion of the culture, the state of microbial growth was observed by a stereomicroscope. After a precipitate on the plate was observed, revertant colonies were counted by the naked eye or a colony counter.
7) Criteria for Determination
Growth of both TA98 and TA100 strains was examined in the presence or absence of S9 mix. Among the resultant concentrations at which growth was inhibited, the lowest concentration was specified as the growth inhibitory concentration. Similarly, the bactericidal concentration was specified as the lowest concentration at which all bacterial cells were killed.

In assay [2] the test system is TNF-α mRNA expression in RBL-2H3 cells. As to the kind of experiment: Validation test in RBL-2H3 cell: TNF-α mRNA expression by antigen stimulation (Real-time PCR). The format is cell-based, Rat. Particulars: 10 μmol/L, untreated control as 100. The protocol:
2. Validation Test in RBL-2H3 Cell
(Effect on Inflammation Mediator mRNA Expression by Antigen Stimulation)
After a cell model for an allergic reaction, RBL-2H3 cells, were stimulated by an antigen, mRNA expression level of a typical inflammation mediator, TNF-α, in the cell was measured by a Real-time PCR method. In this manner, a confirmation test for anti-inflammatory effect of Compound 3 was performed.
A test substance (Compound 3) (50 mg) was dissolved by adding 50 vol % ethanol (1 mL) to this to obtain an ethanol solution having a concentration of 50 mg/mL. The resultant solution was diluted with a medium. […] As a control (for comparison), Wortmannin (10 μM) was used. Herein, the concentrations were all indicated as the concentrations in cell supernatants.
RBL-2H3 cells were sensitized with anti-DNP-IgE antibody for 2 hours. A medium or a test solution was added and heat was applied at 37° C. for 10 minutes and then, a DNP-HSA solution was added. A reaction was carried out at 37° C. for 30 minutes. After completion of the reaction, total RNA was extracted from a cell fraction and cDNA was synthesized by use of Random Primer and Reverse Transcriptase. After a specific primer for a desired gene (ITNF-α,β-actin) was added, a Real-time PCR method was carried out in accordance with SYBR Green method using the resultant cDNA as a template to determine the expression level of mRNA. The expression ratio of the desired gene relative to a housekeeping gene, β-actin, was calculated. In this manner, a change in expression level relative to an untreated control was calculated.
Main test conditions and outline of the operation will be described below.
Cell: Rat basophil leukemic cell, RBL-2H3 [Human Sciences Foundation]
Antigen stimulation: Anti-DNP-IgE antibody, DNP labeled albumin
[Sigma-Aldrich Corporation]
Desired genes: IL-4, MCP-1, TNF-α, β-actin (housekeeping gene)
Measurement apparatus: StepOnePlus Real-Time PCR System [Life
Technologies Corporation] Measurement conditions: 95° C. (20 sec)→{95° C. (3 sec)→60° C. (30 sec)}×40 cycles
mRNA expression level (%) was obtained based on the expression level of the untreated control as 100.

Assay [3] has as its system K562 human leukemia-derived cell lines. As to the kind of experiment: K562 human leukemia cell-proliferation inhibition test. Type of assay: cell-based. Particulars: K562 cells, 72 hours, viable cells counted with trypan blue. The protocol:
K562 Human Leukemia Cell-Proliferation Inhibition Test
A cell proliferation inhibition test using K562 cells was performed. The activity in the presence of a test substance was compared to the activity in the presence of green tea polyphenol (GTP). The materials used in the test are as follows.
Cells: K562 human leukemia-derived cell lines (DS Pharma Biomedical Co., Ltd.)
Control Substance: Green Tea Polyphenols, abbreviation: GTP (LKT Laboratories, Inc.)
Culture solution: 10% equine serum-supplemented RPMI1640 medium
A test substance and a control substance were used by dissolving each of them in DMSO. To a solution (0.99 mL) containing K562 cells in a cell concentration of 20,000 cells/mL, a test substance solution or a control substance solution (0.01 mL) was added and the cells were cultured. Seventy two hours later, a part of the cells was stained with trypan blue and viable cells were counted by a counting chamber.
In Table 2, “IC50” denotes the sample concentration inhibiting 50% of cell proliferation

Where [4] appears, read: TA98 and TA100, presence or absence of S9 mix.
[5] abbreviates: lowest concentration at which growth was inhibited, TA98 and TA100, presence or absence of S9 mix.
The mark [6] stands for this setting: Homo sapiens, K562, 72 h, read-out: IC50.

In assay [1] (setting [4]), `O=C(Nc1cc(S(F)(F)(F)(F)F)ccc1O)c1cc(O)c(O)c(O)c1` [Compound 12, 3-(3,4,5-trihydroxybenzoylamino)-4-hydroxypentafluorosulfanylbenzene] registered a Bactericidal action of 1250 μg/plate. Moreover, in assay [1] (setting [5]), the Growth inhibition came out at 313 μg/plate.
Take `COC[C@H]1OC(=O)c2coc3c2[C@@]1(C)C1=C(C3=O)[C@@H]2CCC(=O)[C@@]2(C)C[C@H]1OC(C)=O` [Wortmannin, reference compound]: in assay [2], the “TNF-α mRNA expression level” value is 45%.
The IC50 is the concentration that inhibits the measured activity by half. Take `O=C(Nc1cccc(S(F)(F)(F)(F)F)c1)c1cc(O)c(O)c(O)c1` [Compound 11, 3-(3,4,5-trihydroxybenzoylamino)pentafluorosulfanylbenzene]: in assay [3] (setting [6]), the IC50 turned out to be 1.5 µg/mL (≈ 4.04 µM). This molecule also returned a Bactericidal action in assay [1] (setting [4]) of 625 μg/plate. In assay [1] (setting [5]), this molecule gave a Growth inhibition of 78.1 μg/plate.
For the molecule `O=C(Nc1ccc(S(F)(F)(F)(F)F)cc1NC(=O)c1cc(O)c(O)c(O)c1)c1cc(O)c(O)c(O)c1` [Compound 14, 3,4-bis(3,4,5-trihydroxybenzoylamino)pentafluorosulfanylbenzene], the Bactericidal action in assay [1] (setting [4]) was 1250 μg/plate. For the same molecule, the Growth inhibition in assay [1] (setting [5]) came to 625 μg/plate.
On the same counts, the results for `CC(=O)Oc1ccc(/C=C/C(=O)Oc2ccc(S(F)(F)(F)(F)F)cc2)cc1OC(C)=O` [Compound 22, 4-(3,4-diacetoxycinnamoyloxy)pentafluorosulfanylbenzene] are 156 μg/plate and 156 μg/plate.
In the case of `CC(=O)Oc1ccc(/C=C/C(=O)Nc2ccc(S(F)(F)(F)(F)F)cc2)cc1OC(C)=O` [Compound 4, 4-(3,4-diacetoxycinnamoylamino)pentafluorosulfanylbenzene], the IC50 in assay [3] (setting [6]) came out at 2.2 µg/mL (≈ 4.73 µM). In addition, in assay [1] (TYPHIMURIUM), the Growth inhibition is recorded as <39.1*^1 μg/plate. Besides, the Bactericidal action in assay [1] (setting [4]) is reported as 156 μg/plate.
Turning to `O=C(/C=C/c1ccccc1)Nc1ccc(S(F)(F)(F)(F)F)cc1` [Compound 35, 4-(cinnamoylamino)pentafluorosulfanylbenzene], the IC50 in assay [3] (setting [6]) amounted to 0.2 µg/mL (≈ 0.573 µM). Besides, the Bactericidal action in assay [1] (setting [4]) is listed as >2500 μg/plate. For the same molecule, the Growth inhibition in assay [1] (setting [5]) came to 39.1 μg/plate.
On the same counts, the results for `CC(=O)Oc1cc(C(=O)Nc2ccc(S(F)(F)(F)(F)F)cc2)cc(OC(C)=O)c1OC(C)=O` [Compound 9, 4-(3,4,5-triacetoxybenzoylamino)pentafluorosulfanylbenzene] are 1.2 µg/mL (≈ 2.41 µM), 625 μg/plate and 156 μg/plate.
Consider `COc1cc(/C=C/C(=O)Nc2ccc(S(F)(F)(F)(F)F)cc2)ccc1OC(C)=O` [Compound 20, 4-(4-acetoxy-3-methoxycinnamoylamino)pentafluorosulfanylbenzene], for which the IC50 in assay [3] (setting [6]) turned out to be 1.7 µg/mL (≈ 3.89 µM). In assay [1] (setting [5]), this molecule registered a Growth inhibition of 156 μg/plate.
On to `COc1cc(C(=O)Nc2ccc(S(F)(F)(F)(F)F)cc2)ccc1O` [Compound 45, 4-(4-hydroxy-3-methoxybenzoylamino)pentafluorosulfanylbenzene], for which, in assay [3] (setting [6]), the IC50 is 0.51 µg/mL (≈ 1.38 µM).
`O=C(/C=C/c1ccc(O)c(O)c1)Nc1ccc(S(F)(F)(F)(F)F)cc1` [Compound 5, 4-(3,4-dihydroxycinnamoylamino)pentafluorosulfanylbenzene]: the IC50 in assay [3] stood at 0.36 µg/mL (≈ 0.944 µM). This molecule also gave a Bactericidal action in assay [1] (setting [4]) of 78.1 μg/plate. The same molecule came in with a Growth inhibition in assay [1] (setting [5]) of 19.5 μg/plate.
Take `O=C(Nc1ccc(S(F)(F)(F)(F)F)cc1)c1c(O)cc(O)cc1O` [Compound 23, 4-(2,4,6-trihydroxybenzoylamino)pentafluorosulfanylbenzene]: in assay [3] (setting [6]), the IC50 was determined as 4.1 µg/mL (≈ 11 µM).
Same read-out and setting: in the case of `O=C(Nc1ccc(S(F)(F)(F)(F)F)cc1)c1ccc(O)c(F)c1` [Compound 57, 4-(4-hydroxy-3-fluorobenzoylamino)pentafluorosulfanylbenzene] it was 3.3 µg/mL (≈ 9.24 µM); in that of `O=C(Nc1ccc(S(F)(F)(F)(F)F)cc1)c1cnco1` [Compound 82, 4-(oxazol-5-yl)carbonylaminopentafluorosulfanylbenzene], 3.6 µg/mL (≈ 11.5 µM).
On the same count and under the same terms, in the case of `O=C(Nc1ccc(S(F)(F)(F)(F)F)cc1)c1cnccn1` [Compound 79, 4-(pyrazin-2-yl)carbonylaminopentafluorosulfanylbenzene] it was 4.2 µg/mL (≈ 12.9 µM).
`O=C(Nc1ccc(S(F)(F)(F)(F)F)cc1)c1cocn1` [Compound 81, 4-(oxazol-4-yl)carbonylaminopentafluorosulfanylbenzene]: in assay [3] (setting [6]), the concentration for half-maximal inhibition (IC50) is 2 µg/mL (≈ 6.36 µM).
The same measure, in the same setting: in the case of `O=C(Nc1ccc(S(F)(F)(F)(F)F)cc1)c1cc(O)ncn1` [Compound 69, 4-(4-hydroxypyrimidin-6-yl)carbonylaminopentafluorosulfanylbenzene] it was 2 µg/mL (≈ 5.86 µM); in that of `O=C(Nc1ccc(S(F)(F)(F)(F)F)cc1)c1ccnc(F)c1` [Compound 76, 4-(2-fluoropyridin-4-yl)carbonylaminopentafluorosulfanylbenzene], 2 µg/mL (≈ 5.84 µM); in that of `COc1cc(C(=O)Nc2ccc(S(F)(F)(F)(F)F)cc2)ccc1[N+](=O)[O-]` [Compound 59, 4-(4-nitro-3-methoxybenzoylamino)pentafluorosulfanylbenzene], 1.1 µg/mL (≈ 2.76 µM).
